Source: patent US5288723A, “A composition and a method of using veratridine and epinephrine as a local anesthetic” (priority 1991, dated 1994)
“Also recorded” adds a separate entry of the source.

Assays:
rabbit vagus nerve = test: Extracellular recording of compound action potentials (APc), vagus nerve as a whole; parameters: species or system New Zealand white rabbit
Experimental: (§1) Adult male New Zealand white rabbits (3±0.5 kg) were pretreated intramuscularly with a mixture of ketamine (200 mg), xylazine (20 mg) and atropine (0.4 mg) for sedation. Ten minutes after this treatment, the animals were anesthetized with diethyl ether. After cessation of respiration, a longitudinal skin incision was made, and the cervical portion of both vagus nerves was dissected. The vagus nerves were temporarily stored at room temperature (22° C.) in a beaker containing modified HEPES Liley (HL) solution stirred constantly by aeration with a mixture of 95% oxygen and 5% carbon dioxide.
The modified HL solution used for bathing the nerve and subsequent drug perfusion consisted of (in mM): NaCl, 118.0; KCl, 5.0; CaCl2 2H2 0, 2.0; MgCl2 6H2 0, 1.0; α-D(+)-glucose, 11.0; NaHC03, 25.0; and N-2-hydroxy-ethylpiperazine-N-2-ethanesulfonic acid (HEPES) buffer, 5.0 mM. The pH was adjusted to 7.4±0.05 by addition of 1 N NaOH. The perfusion solution was bubbled with a gas mixture of 95% oxygen and 5% carbon dioxide at a vigorous rate just before flowing onto the nerve. The pH was stabilized by the HEPES buffer and maintained at 7.4.
VTD free base (no. V-5754, lot 58F-7828, Sigma, St. Louis, Mo.) was stored in a desiccator below 0° C. and was used to prepare a 2 mM stock solution in dimethyl sulfoxide [DMSO], Fisher Scientific, lot 861316), which also was stored at below 0° C. VTD, a steroidal alkaloid (FIG. 2A) that is produced by certain lilies, has a solubility limited to approximately 10^-3 M in aqueous slat solutions [Kupchan and By, "The Veratrum Group," in Alkaloids, Vol. 10, Manske, R.H.F. (ed.), New York, Academic Press (1968), pp. 193-285]. The stock VTD solution was diluted to final concentrations of 0.2-10 μM by the addition of HL. The maximum equivalent content of DMSO is 0.5%, and in three control experiments we detected no change in electrophysiologic behavior with 1% DMSO.
The nerves were cleaned and desheathed by microdissection before mounting in an airtight chamber (FIG. 2B) [Gissen et al., Anesthesiology 53:467-474 (1980)]. Petroleum jelly (White Petrolatum, Denison Laboratories) seals separated a central, 11-mm length of the nerve from the lateral pools, used for stimulating and recording with electrodes made of platinum wire. The central section of the chamber (volume 0.25 ml) was perfused with HL solution at 0.5 ml.min.^-1. The lateral pools containing the moistened ends of the nerves adsorbed to the electrodes were filled with paraffin oil. […] Thus, measured APc s were conducted in nerve exposed to drug for half of the conduction pathway, and had been conducting through drug-free medium over a distance containing at least two or three nodes of Ranvier (in the fastest-conducting fibers), before reaching the recording electrodes. […]

rat sciatic nerve = test: Sensory block of rat sciatic nerve in vivo (nocifensive withdrawal reflex to pinch of the foot pad); parameters: species or system Male Sprague-Dawley rats; conditions: for fraction block, SENSORY / duration, SENSORY / onset, SENSORY: 0.1 ml; for duration, SENSORY / onset, SENSORY: mean ± SEM
Experimental: Male Sprague-Dawley rats (200-250 g) were divided into 4 groups of 10 each. 0.1 ml of VTD alone at 0.2, 0.5 or 0.7 mM or vehicle (saline) was injected at the depression between the femoral head and the hip. The same animals were injected with VTD with epinephrine (EPI, 1:200,000) one week later, using the previously uninjected leg. Motor and sensory functions were rated by the respective monitoring of toe curling and/or foot dragging, and by testing the nocifensive withdrawal reflex to pinch of the foot pad of the injected hindlimb. Saline alone affected neither function.

[1] = system: A-fibers of rabbit vagus nerve; test: Sucrose-gap recording in the veratrinized region, A-fibers; parameters: species or system New Zealand white rabbit
Experimental: as §1, with “dioxide. […]” for “dioxide.”
VTD free base (no. V-5754, lot 58F-7828, Sigma, St. Louis, Mo.) was stored in a desiccator below 0° C. and was used to prepare a 2 mM stock solution in dimethyl sulfoxide [DMSO], Fisher Scientific, lot 861316), which also was stored at below 0° C. […] The maximum equivalent content of DMSO is 0.5%, and in three control experiments we detected no change in electrophysiologic behavior with 1% DMSO.
Nerves were desheathed and mounted in an acrylic sucrose-gap chamber (FIG. 2C). […] In contrast to the extracellular chamber described above, which measured APc in a drug-free segment after they had propagated through a VTD solution, the sucrose gap measured the behavior of the nerve membrane directly exposed to drug, the "veratrinized" nerve. […]

[2] = aqueous slat solutions; limited to approximately; cited from earlier work

COc1ccc(C(=O)OC2CCC3(C)C4CCC5C6(O)CC(O)C7(O)C(CN8CC(C)CCC8C7(C)O)C6(O)CC53OC24O)cc1OC (stereo not drawn) [VTD, veratridine]
Fiber preference of impulse inhibition (rabbit vagus nerve; VTD alone, use-dependent): highly preferential for C-fibers | Time to recover from VTD-induced use-dependent effects (rabbit vagus nerve; after termination of rapid stimulation): tens of seconds | Effect of VTD added to a nerve during recovery from bupivacaine (rabbit vagus nerve; residual bupivacaine block): potentiated rather than antagonized the residual block | Effect on impulses conducted in response to a single stimulus (rabbit vagus nerve; single stimuli, 0.5 μM): only a small effect; also recorded: unaffected | Frequency of sensory block (summary) (rat sciatic nerve; VTD alone, vs motor block): less frequently | fraction block, SENSORY (rat sciatic nerve; [VTD] 0.2 mM): 1/10 | duration, SENSORY (rat sciatic nerve; [VTD] 0.2 mM): 51 min | onset, SENSORY (rat sciatic nerve; [VTD] 0.2 mM): 13 min | fraction block, SENSORY (rat sciatic nerve; [VTD] 0.5 mM): 2/10 | duration, SENSORY (rat sciatic nerve; [VTD] 0.5 mM): 224 ± 44 min | onset, SENSORY (rat sciatic nerve; [VTD] 0.5 mM): 3 ± 1 min | fraction block, SENSORY (rat sciatic nerve; [VTD] 0.7 mM): 4/10 | duration, SENSORY (rat sciatic nerve; [VTD] 0.7 mM): 115 ± 1 min | onset, SENSORY (rat sciatic nerve; [VTD] 0.7 mM): 10 ± 2 min | Block of nocifensive reflexes compared with bupivacaine and lidocaine (rat sciatic nerve; rat sciatic nerve): blocked less predictably | A-fiber deflection between beginning and end of the train ([1]; 0.2 μM VTD, 0.5 Hz stimulation): unchanged | A-fiber elevation after addition of VTD ([1]; 0.5 μm VTD): unchanged | Solubility [2]: approximately 10^-3 M
